Test results taken from PubChem BioAssay (NCI).
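Five compound concentrations were applied to cells in 96-well plates for 48 hours; endpoints were derived by simple linear interpolation of the resulting dose-response curve. GI50: concentration for 50% inhibition of growth. Definition used: TGI = concentration required for complete inhibition of growth.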

What was measured:
Test in all cases: NCI tumour cell line growth inhibition, 48 h
MCF7 breast = test system: MCF7 breast
HL-60(TB) leukemia = test system: HL-60(TB) leukemia
A549 NSCLC = test system: A549 NSCLC
MALME-3M melanoma = test system: MALME-3M melanoma
HS 578T breast = test system: HS 578T breast
COLO 205 colon = test system: COLO 205 colon
IGROV1 ovarian = test system: IGROV1 ovarian
SK-OV-3 ovarian = test system: SK-OV-3 ovarian
SF-295 CNS = test system: SF-295 CNS
BT-549 breast = test system: BT-549 breast
HCT-15 colon = test system: HCT-15 colon
HOP-92 NSCLC = test system: HOP-92 NSCLC
ACHN renal = test system: ACHN renal
SNB-75 CNS = test system: SNB-75 CNS
KM12 colon = test system: KM12 colon
NCI-H226 lung = test system: NCI-H226 lung
786-0 renal = test system: 786-0 renal
UACC-62 melanoma = test system: UACC-62 melanoma
MDA-MB-231 breast = test system: MDA-MB-231 breast
SK-MEL-5 melanoma = test system: SK-MEL-5 melanoma
NCI-H522 lung = test system: NCI-H522 lung
MOLT-4 leukemia = test system: MOLT-4 leukemia
NCI-H460 lung = test system: NCI-H460 lung
UO-31 renal = test system: UO-31 renal
HT29 colon = test system: HT29 colon
UACC-257 melanoma = test system: UACC-257 melanoma
A498 renal = test system: A498 renal
SNB-19 CNS = test system: SNB-19 CNS

## O=C(COc1cccc(/C=C2\CSc3ccc(Cl)cc3C2=O)c1)c1ccc(Cl)cc1
MCF7 breast
  GI50: 2.12 µM
  TGI: 10.4 µM
HL-60(TB) leukemia
  GI50: 2.69 µM
  TGI: 6.87 µM
A549 NSCLC
  GI50: 77.6 µM
  TGI: > 100 µM
MALME-3M melanoma
  GI50: 10.6 µM
  TGI: 23.9 µM
HS 578T breast
  GI50: 2.46 µM
  TGI: 6.91 µM
COLO 205 colon
  GI50: 5.32 µM
  TGI: 20.2 µM
IGROV1 ovarian
  GI50: 3.29 µM
  TGI: 20.2 µM
SK-OV-3 ovarian
  GI50: 20.4 µM
  TGI: 97.5 µM
SF-295 CNS
  GI50: 4.48 µM
  TGI: 18.7 µM
BT-549 breast
  GI50: 15 µM
  TGI: 28.8 µM
HCT-15 colon
  GI50: 1.8 µM
  TGI: 3.9 µM
HOP-92 NSCLC
  GI50: 0.666 µM
  TGI: 9.8 µM
ACHN renal
  GI50: 12.5 µM
  TGI: 25 µM
SNB-75 CNS
  GI50: 14 µM
  TGI: 37.8 µM
KM12 colon
  GI50: 1.76 µM
  TGI: 4.13 µM
NCI-H226 lung
  GI50: 13.4 µM
  TGI: 44.4 µM
786-0 renal
  GI50: 14.5 µM
  TGI: 29.5 µM
UACC-62 melanoma
  GI50: 9.04 µM
  TGI: 22.5 µM
MDA-MB-231 breast
  GI50: 2.93 µM
  TGI: 16.5 µM
SK-MEL-5 melanoma
  GI50: 5.33 µM
  TGI: 19.6 µM
NCI-H522 lung
  GI50: 1.74 µM
  TGI: 4.19 µM
MOLT-4 leukemia
  GI50: 1.84 µM
  TGI: 4.46 µM
NCI-H460 lung
  GI50: 23.1 µM
  TGI: > 100 µM
UO-31 renal
  GI50: 12 µM
  TGI: 27.2 µM
HT29 colon
  GI50: 2.08 µM
  TGI: 4.18 µM
UACC-257 melanoma
  GI50: 13.4 µM
  TGI: 30.8 µM
A498 renal
  GI50: 44.6 µM
  TGI: > 100 µM
SNB-19 CNS
  GI50: 6.57 µM
  TGI: 20.8 µM
